Experimental data taken from the NIST ThermoML archive (doi:10.1021/je201334p).
± gives the expanded uncertainty stated by the source.

Experiments:
[1] = xn = mol fraction of the nth substance listed; settings: 101 kPa, Liquid; for speed of sound: Sing-around technique in a fixed-path interferometer; for mass density: Vibrating tube method
[2] = refractive index (Na D-line) (dimensionless); xn = mol fraction of the nth substance listed; settings: 101 kPa, Liquid, Standard Abbe refractometry

With `CCCC[N+]1(C)CCCC1.O=S(=O)([O-])C(F)(F)F` [1-butyl-1-methylpyrrolidinium trifluoromethanesulfonate] + O the speed of sound ([1]; 288.15 K, x2 = 0) was 1484.6 ± 1.4 m/s, the speed of sound ([1]; 288.15 K, x2 = 0.0559) was 1486.9 ± 1.4 m/s and the speed of sound ([1]; 288.15 K, x2 = 0.1084) was 1489.1 ± 1.3 m/s. It also gave a speed of sound ([1]; 288.15 K, x2 = 0.2076) of 1494.5 ± 1.3 m/s, a speed of sound ([1]; 288.15 K, x2 = 0.2997) of 1500.7 ± 1.2 m/s and a speed of sound ([1]; 288.15 K, x2 = 0.408) of 1509.8 ± 1.2 m/s. For the same molecule, the speed of sound ([1]; 288.15 K, x2 = 0.5038) was 1520.1 ± 1.1 m/s, the speed of sound ([1]; 288.15 K, x2 = 0.6003) was 1533.3 ± 1.1 m/s and the speed of sound ([1]; 288.15 K, x2 = 0.7052) was 1552.3 ± 1.1 m/s. It also gave a speed of sound ([1]; 288.15 K, x2 = 0.8095) of 1576.2 ± 1 m/s, a speed of sound ([1]; 288.15 K, x2 = 0.9018) of 1595.4 ± 1 m/s and a speed of sound ([1]; 288.15 K, x2 = 0.9533) of 1592.8 ± 1.1 m/s. For the same molecule, the mass density ([1]; 288.15 K, x2 = 0) was 1260.33 ± 0.58 kg/m3, the mass density ([1]; 288.15 K, x2 = 0.0559) was 1259.04 ± 0.54 kg/m3 and the mass density ([1]; 288.15 K, x2 = 0.1084) was 1257.8 ± 0.5 kg/m3. The mass density ([1]; 288.15 K, x2 = 0.2076) was 1255.12 ± 0.43 kg/m3, the mass density ([1]; 288.15 K, x2 = 0.2997) was 1252.05 ± 0.38 kg/m3 and the mass density ([1]; 288.15 K, x2 = 0.408) was 1247.41 ± 0.32 kg/m3. It also gave a mass density ([1]; 288.15 K, x2 = 0.5038) of 1241.91 ± 0.28 kg/m3, a mass density ([1]; 288.15 K, x2 = 0.6003) of 1234.21 ± 0.24 kg/m3 and a mass density ([1]; 288.15 K, x2 = 0.7052) of 1221.39 ± 0.21 kg/m3. It also gave a mass density ([1]; 288.15 K, x2 = 0.8095) of 1198.77 ± 0.18 kg/m3, a mass density ([1]; 288.15 K, x2 = 0.9018) of 1155.9 ± 0.15 kg/m3 and a mass density ([1]; 288.15 K, x2 = 0.9533) of 1104.38 ± 0.14 kg/m3. It also gave a speed of sound ([1]; 298.15 K, x2 = 0) of 1460.1 ± 1.4 m/s, a speed of sound ([1]; 298.15 K, x2 = 0.0559) of 1462.7 ± 1.4 m/s and a speed of sound ([1]; 298.15 K, x2 = 0.1084) of 1464.9 ± 1.3 m/s. For the same molecule, the speed of sound ([1]; 298.15 K, x2 = 0.2076) was 1470.5 ± 1.3 m/s, the speed of sound ([1]; 298.15 K, x2 = 0.2997) was 1476.9 ± 1.2 m/s and the speed of sound ([1]; 298.15 K, x2 = 0.408) was 1486.1 ± 1.2 m/s. The speed of sound ([1]; 298.15 K, x2 = 0.5038) was 1496.5 ± 1.1 m/s, the speed of sound ([1]; 298.15 K, x2 = 0.6003) was 1510 ± 1.1 m/s and the speed of sound ([1]; 298.15 K, x2 = 0.7052) was 1529.6 ± 1.1 m/s. It also gave a speed of sound ([1]; 298.15 K, x2 = 0.8095) of 1555.8 ± 1 m/s, a speed of sound ([1]; 298.15 K, x2 = 0.9018) of 1582.1 ± 1 m/s and a speed of sound ([1]; 298.15 K, x2 = 0.9533) of 1589.4 ± 1 m/s. It also gave a mass density ([1]; 298.15 K, x2 = 0) of 1252.98 ± 0.57 kg/m3, a mass density ([1]; 298.15 K, x2 = 0.0559) of 1251.78 ± 0.53 kg/m3 and a mass density ([1]; 298.15 K, x2 = 0.1084) of 1250.57 ± 0.49 kg/m3. It also gave a mass density ([1]; 298.15 K, x2 = 0.2076) of 1247.82 ± 0.43 kg/m3, a mass density ([1]; 298.15 K, x2 = 0.2997) of 1244.68 ± 0.37 kg/m3 and a mass density ([1]; 298.15 K, x2 = 0.408) of 1239.95 ± 0.32 kg/m3. The mass density ([1]; 298.15 K, x2 = 0.5038) was 1234.36 ± 0.28 kg/m3, the mass density ([1]; 298.15 K, x2 = 0.6003) was 1226.56 ± 0.24 kg/m3 and the mass density ([1]; 298.15 K, x2 = 0.7052) was 1213.67 ± 0.21 kg/m3. It also gave a mass density ([1]; 298.15 K, x2 = 0.8095) of 1191.13 ± 0.18 kg/m3, a mass density ([1]; 298.15 K, x2 = 0.9018) of 1148.95 ± 0.14 kg/m3 and a mass density ([1]; 298.15 K, x2 = 0.9533) of 1098.73 ± 0.12 kg/m3. It also gave a speed of sound ([1]; 308.15 K, x2 = 0) of 1436.7 ± 1.4 m/s, a speed of sound ([1]; 308.15 K, x2 = 0.0559) of 1439.7 ± 1.3 m/s and a speed of sound ([1]; 308.15 K, x2 = 0.1084) of 1441.5 ± 1.3 m/s. The speed of sound ([1]; 308.15 K, x2 = 0.2076) was 1447.2 ± 1.3 m/s, the speed of sound ([1]; 308.15 K, x2 = 0.2997) was 1453.6 ± 1.2 m/s and the speed of sound ([1]; 308.15 K, x2 = 0.408) was 1462.8 ± 1.2 m/s. For the same molecule, the speed of sound ([1]; 308.15 K, x2 = 0.5038) was 1473.2 ± 1.1 m/s, the speed of sound ([1]; 308.15 K, x2 = 0.6003) was 1486.7 ± 1.1 m/s and the speed of sound ([1]; 308.15 K, x2 = 0.7052) was 1506.6 ± 1 m/s. The speed of sound ([1]; 308.15 K, x2 = 0.8095) was 1534.6 ± 1 m/s, the speed of sound ([1]; 308.15 K, x2 = 0.9018) was 1566.6 ± 1 m/s and the speed of sound ([1]; 308.15 K, x2 = 0.9533) was 1582.8 ± 1.1 m/s. It also gave a mass density ([1]; 308.15 K, x2 = 0) of 1245.78 ± 0.56 kg/m3, a mass density ([1]; 308.15 K, x2 = 0.0559) of 1244.55 ± 0.52 kg/m3 and a mass density ([1]; 308.15 K, x2 = 0.1084) of 1243.3 ± 0.48 kg/m3. The mass density ([1]; 308.15 K, x2 = 0.2076) was 1240.51 ± 0.42 kg/m3, the mass density ([1]; 308.15 K, x2 = 0.2997) was 1237.3 ± 0.37 kg/m3 and the mass density ([1]; 308.15 K, x2 = 0.408) was 1232.47 ± 0.31 kg/m3. The mass density ([1]; 308.15 K, x2 = 0.5038) was 1226.79 ± 0.27 kg/m3, the mass density ([1]; 308.15 K, x2 = 0.6003) was 1218.89 ± 0.24 kg/m3 and the mass density ([1]; 308.15 K, x2 = 0.7052) was 1205.88 ± 0.21 kg/m3. For the same molecule, the mass density ([1]; 308.15 K, x2 = 0.8095) was 1183.37 ± 0.18 kg/m3, the mass density ([1]; 308.15 K, x2 = 0.9018) was 1141.73 ± 0.16 kg/m3 and the mass density ([1]; 308.15 K, x2 = 0.9533) was 1092.63 ± 0.16 kg/m3. It also gave a refractive index ([2]; 288.15 K, x2 = 0) of 1.43557 ± 0.00052, a refractive index ([2]; 288.15 K, x2 = 0.0559) of 1.43506 ± 0.00052 and a refractive index ([2]; 288.15 K, x2 = 0.1084) of 1.43458 ± 0.00051. It also gave a refractive index ([2]; 288.15 K, x2 = 0.2076) of 1.43345 ± 0.00051, a refractive index ([2]; 288.15 K, x2 = 0.2997) of 1.43221 ± 0.0005 and a refractive index ([2]; 288.15 K, x2 = 0.408) of 1.43031 ± 0.00049. The refractive index ([2]; 288.15 K, x2 = 0.5038) was 1.42809 ± 0.00048, the refractive index ([2]; 288.15 K, x2 = 0.6003) was 1.42501 ± 0.00047 and the refractive index ([2]; 288.15 K, x2 = 0.7052) was 1.41987 ± 0.00043. It also gave a refractive index ([2]; 288.15 K, x2 = 0.8095) of 1.41085 ± 0.00041, a refractive index ([2]; 288.15 K, x2 = 0.9018) of 1.39398 ± 0.00045 and a refractive index ([2]; 288.15 K, x2 = 0.9533) of 1.37399 ± 0.00072. The refractive index ([2]; 298.15 K, x2 = 0) was 1.43289 ± 0.00052, the refractive index ([2]; 298.15 K, x2 = 0.0559) was 1.4324 ± 0.00052 and the refractive index ([2]; 298.15 K, x2 = 0.1084) was 1.43187 ± 0.00052. The refractive index ([2]; 298.15 K, x2 = 0.2076) was 1.43075 ± 0.00051, the refractive index ([2]; 298.15 K, x2 = 0.2997) was 1.42951 ± 0.0005 and the refractive index ([2]; 298.15 K, x2 = 0.408) was 1.42762 ± 0.0005. For the same molecule, the refractive index ([2]; 298.15 K, x2 = 0.5038) was 1.42536 ± 0.0005, the refractive index ([2]; 298.15 K, x2 = 0.6003) was 1.42221 ± 0.0005 and the refractive index ([2]; 298.15 K, x2 = 0.7052) was 1.41708 ± 0.00049. For the same molecule, the refractive index ([2]; 298.15 K, x2 = 0.8095) was 1.40814 ± 0.00048, the refractive index ([2]; 298.15 K, x2 = 0.9018) was 1.39161 ± 0.00046 and the refractive index ([2]; 298.15 K, x2 = 0.9533) was 1.3721 ± 0.00044. For the same molecule, the refractive index ([2]; 308.15 K, x2 = 0) was 1.43018 ± 0.00052, the refractive index ([2]; 308.15 K, x2 = 0.0559) was 1.4297 ± 0.00052 and the refractive index ([2]; 308.15 K, x2 = 0.1084) was 1.42918 ± 0.00052. It also gave a refractive index ([2]; 308.15 K, x2 = 0.2076) of 1.42808 ± 0.00051, a refractive index ([2]; 308.15 K, x2 = 0.2997) of 1.42683 ± 0.00051 and a refractive index ([2]; 308.15 K, x2 = 0.408) of 1.4249 ± 0.00051. For the same molecule, the refractive index ([2]; 308.15 K, x2 = 0.5038) was 1.42262 ± 0.00051, the refractive index ([2]; 308.15 K, x2 = 0.6003) was 1.41943 ± 0.00053 and the refractive index ([2]; 308.15 K, x2 = 0.7052) was 1.4143 ± 0.00057. It also gave a refractive index ([2]; 308.15 K, x2 = 0.8095) of 1.40557 ± 0.00069, a refractive index ([2]; 308.15 K, x2 = 0.9018) of 1.38937 ± 0.00076 and a refractive index ([2]; 308.15 K, x2 = 0.9533) of 1.37023 ± 0.001.
